Measured values reported in US20250085283A1, “METHOD FOR QUANTIFYING NICOTINAMIDE ADENINE DINUCLEOTIDE (NAD+) OR NICOTINAMIDE MONONUCLEOTIDE (NMN), AND KIT AND FILTER PAPER FOR PERFORMING THE METHOD” (Teijin Limited, priority 2022, published 2025).
Each block holds one compound with its values, some of them ahead of it.

Assays:
Format in all cases: physicochemical, human
[1] = Chilled storage stability of NAD+ and NMN in blood spotted on filter paper (DBS, LC-MS/MS); conditions: for Storage stability (mean): vs storage 0 days
Description: (§1) A filter paper, to which blood derived from a test subject is added (i.e., corresponding to a filter paper in Step 1 of the present invention), was searched for the optimal one for quantifying NAD+ and NMN when the filter paper with added blood derived from the test subject is stored in the refrigerator for a certain period of time.
From 5 subjects (adult men and women) per test, approximately 120 μL of blood (amount of 2 collection containers of the kit) was sampled by self-collection using an Micro Blood Collection Kit (Micro Blood Science Co., Ltd.), and was left to stand on ice until sample processing. The subjects were fasted on the morning of the sampling day, and samplings were performed around 9:00 am. The test was performed four times in total, with a total of 19 people performing evaluations, excluding one person due to insufficient sample blood volume.
The sampled blood was collected into 1.5 mL microtubes for each subject and mixed by gentle pipetting. Four types of filter papers (Whatman FTA DMPK-A Card/GE healthcare, QIAcard FTA DMPK-B Card/QIAGEN, QIAcard FTA DMPK-C Card/QIAGEN, Whatman 903 Protein saver card/Cytiva) were each spotted with 5 μL of blood (dropped/added) at multiple areas, sealed in a moisture absorption standard pouch (Moisture absorption-kun (registered trademark)/Maruto Sangyo Co., Ltd.), and stored in the refrigerator. Next, after chilled storing the blood-spotted filter paper for 2 days, 2 weeks (14 days or 15 days), or 1 month (30 days), the blood-spotted areas were cut out and collected in a 2 mL microtube. After adding 300 μL of a mixed aqueous solution of internal standard substances (NAD+-d4 and NMN-d4/Toronto Research Chemicals, Inc.) thereto and stirring using a vortex mixer, the mixture was mixed with a micromixer (TOMY MICRO TUBE MIXER MT-400, stirring speed 5) for 30 minutes at room temperature. The blood extract solution was dispensed by each 150 μL portion into a microtube, 300 μL of acetonitrile was added thereto, and the mixture was stirred using a vortex mixer, followed by centrifugation (24,250×g, 10 minutes, 4° C.). After centrifugation, 40 μL of the supernatant was dispensed into a vial and measured by LC-MS/MS.
In contrast, as a sample for initial values, 5 μL of blood was collected into a 2 mL microtube (no spotted filter paper), and 300 μL of a mixed aqueous solution of internal standard substances (NAD-d4 and NMN-d4/Toronto Research Chemicals, Inc.) was added thereto and stirred using a vortex mixer, and then the mixture was mixed using a micromixer (TOMY MICRO TUBE MIXER MT-400, stirring speed 5) for 30 minutes at room temperature. The blood extract solution was dispensed by each 150 μL portion into a microtube, 300 μL of acetonitrile was added thereto, and the mixture was stirred using a vortex mixer, followed by centrifugation (24,250×g, 10 minutes, 4° C.). After centrifugation, 40 μL of the supernatant was dispensed into a vial and measured by LC-MS/MS.

[2] = Room temperature storage stability of NAD+ and NMN in blood spotted on filter paper (DBS, LC-MS/MS); conditions: for Storage stability (mean): vs storage 0 days
Description: as §1, with “at room temperature” for “in the refrigerator”
A part of the blood spotted-filter paper prepared in Example 2 was sealed in a moisture absorption standard pouch (Moisture absorption-kun (registered trademark)/Maruto Sangyo Co., Ltd.) and then stored at room temperature. After storage at room temperature for 2 days, 1 week (7 days), or 2 weeks (15 days), the blood-spotted areas were cut out and collected in a 2 mL microtube. After performing the same treatment as in Example 2, measurement by LC-MS/MS was performed under the same conditions as in Example 2.

[3] = Storage stability of extract solution (frozen storage 71 days); conditions: frozen 71 days, vs storage 0 days
Description: A filter paper with added blood derived from a test subject is brought into contact with a solvent (extraction buffer) to obtain the solvent after contact (hereinafter may be abbreviated as extract solution), which storage stability was investigated.
A part of the blood extract solution (100% water) from the filter paper obtained and stored in Example 2 (15 days of chilled storage) and a part of the solution for LC-MS/MS measurement (water containing 67% acetonitrile) were frozen-stored. After 71 days of frozen storage, the supernatant of the former obtained by adding twice the amount of acetonitrile thereto, mixing and centrifuging (24,250×g, 10 minutes, 4° C.), and the supernatant of the latter obtained by centrifuging (24,250×g, 10 minutes, 4° C.) the solution after storage were both measured by LC-MS/MS under the same conditions as in Example 2.

[4] = human blood on 903 card, chilled storage for 1 month
[5] = human blood on 903 card, chilled storage for 2 weeks
[6] = human blood on 903 card, chilled storage for 2 days
[7] = human blood on DMPK-A card, chilled storage for 1 month
[8] = human blood on DMPK-A card, chilled storage for 2 weeks
[9] = human blood on DMPK-A card, chilled storage for 2 days
[10] = human blood on DMPK-B card, chilled storage for 1 month
[11] = human blood on DMPK-B card, chilled storage for 2 weeks
[12] = human blood on DMPK-B card, chilled storage for 2 days
[13] = human blood on DMPK-C card, chilled storage for 1 month
[14] = human blood on DMPK-C card, chilled storage for 2 weeks
[15] = human blood on DMPK-C card, chilled storage for 2 days
[16] = human blood on 903 card, room temperature storage for 2 weeks
[17] = human blood on 903 card, room temperature storage for 2 days
[18] = human blood on DMPK-A card, room temperature storage for 2 weeks
[19] = human blood on DMPK-A card, room temperature storage for 2 days
[20] = human blood on DMPK-B card, room temperature storage for 1 week
[21] = human blood on DMPK-B card, room temperature storage for 2 weeks
[22] = human blood on DMPK-B card, room temperature storage for 2 days
[23] = human blood on DMPK-C card, room temperature storage for 2 weeks
[24] = human blood on DMPK-C card, room temperature storage for 2 days

Storage stability, Evaluation [1, 4]: Good: (Good (≥70%))
Storage stability (mean) [1, 4]: 82.6%
Storage stability, Evaluation [1, 5]: Good: (Good (≥70%))
Storage stability (mean) [1, 5]: 77.2%
Storage stability, Evaluation [1, 6]: Good: (Good (≥70%))
Storage stability (mean) [1, 6]: 74.1%
Storage stability, Evaluation [1, 7]: Good: (Good (≥70%))
Storage stability (mean) [1, 7]: 71.8%
Storage stability, Evaluation [1, 8]: Good: (Good (≥70%))
Storage stability (mean) [1, 8]: 79.1%
Storage stability, Evaluation [1, 9]: Good: (Good (≥70%))
Storage stability (mean) [1, 9]: 81.5%
Storage stability, Evaluation [1, 10]: Good: (Good (≥70%))
Storage stability (mean) [1, 10]: 79.8%
Storage stability, Evaluation [1, 11]: Excellent: (Excellent (≥85%))
Storage stability (mean) [1, 11]: 87.8%
Storage stability, Evaluation [1, 12]: Good: (Good (≥70%))
Storage stability (mean) [1, 12]: 80.7%
Storage stability, Evaluation [1, 13]: Average: (Average (≥50%))
Storage stability (mean) [1, 13]: 54.3%
Storage stability, Evaluation [1, 14]: Average: (Average (≥50%))
Storage stability (mean) [1, 14]: 66.6%
Storage stability, Evaluation [1, 15]: Good: (Good (≥70%))
Storage stability (mean) [1, 15]: 70.1%
Storage stability, Evaluation [2, 16]: Average (Average (≥50%))
Storage stability (mean) [2, 16]: 50.3%
Storage stability, Evaluation [2, 17]: Average (Average (≥50%))
Storage stability (mean) [2, 17]: 66.2%
Storage stability, Evaluation [2, 18]: Average: (Average (≥50%))
Storage stability (mean) [2, 18]: 51.6%
Storage stability, Evaluation [2, 19]: Good: (Good (≥70%))
Storage stability (mean) [2, 19]: 71.6%
Storage stability, Evaluation [2, 20]: Excellent: (Excellent (≥85%))
Storage stability (mean) [2, 20]: 87.2%
Storage stability, Evaluation [2, 21]: Average: (Average (≥50%))
Storage stability (mean) [2, 21]: 67.6%
Storage stability, Evaluation [2, 22]: Good: (Good (≥70%))
Storage stability (mean) [2, 22]: 82.0%
Storage stability, Evaluation [2, 23]: Average (Average (≥50%))
Storage stability (mean) [2, 23]: 50.2%
Storage stability, Evaluation [2, 24]: Average (Average (≥50%))
Storage stability (mean) [2, 24]: 55.9%
Storage stability (mean) ([3]; 903 card chilled 15 days, extract solution 100% water): 266.3%
Storage stability (mean) ([3]; 903 card chilled 15 days, extract solution with twice the amount of acetonitrile added): 92.1%
Storage stability (mean) ([3]; DMPK-A card chilled 15 days, extract solution 100% water): 145.8%
Storage stability (mean) ([3]; DMPK-A card chilled 15 days, extract solution with twice the amount of acetonitrile added): 89.6%
Storage stability (mean) ([3]; DMPK-B card chilled 15 days, extract solution 100% water): 93.1%
Storage stability (mean) ([3]; DMPK-B card chilled 15 days, extract solution with twice the amount of acetonitrile added): 100.0%
Storage stability (mean) ([3]; DMPK-C card chilled 15 days, extract solution 100% water): 200.6%
Storage stability (mean) ([3]; DMPK-C card chilled 15 days, extract solution with twice the amount of acetonitrile added): 73.6%
Structure (SMILES): NC(=O)c1ccc[n+]([C@@H]2O[C@H](COP(=O)([O-])OP(=O)(O)OC[C@H]3O[C@@H](n4cnc5c(N)ncnc54)[C@H](O)[C@@H]3O)[C@@H](O)[C@H]2O)c1 [NAD+, nicotinamide adenine dinucleotide]

Storage stability (mean) [1, 4]: 56.3%
Storage stability, Evaluation [1, 5]: Average: (Average (≥50%))
Storage stability (mean) [1, 5]: 64.5%
Storage stability, Evaluation [1, 6]: Average: (Average (≥50%))
Storage stability (mean) [1, 6]: 60.1%
Storage stability, Evaluation [1, 7]: Excellent: (Excellent (≥85%))
Storage stability (mean) [1, 7]: 99.9%
Storage stability, Evaluation [1, 8]: Good: (Good (≥70%))
Storage stability (mean) [1, 8]: 80.6%
Storage stability, Evaluation [1, 9]: Good: (Good (≥70%))
Storage stability (mean) [1, 9]: 73.1%
Storage stability, Evaluation [1, 10]: Good: (Good (≥70%))
Storage stability (mean) [1, 10]: 78.6%
Storage stability, Evaluation [1, 11]: Excellent: (Excellent (≥85%))
Storage stability (mean) [1, 11]: 93.6%
Storage stability, Evaluation [1, 12]: Excellent: (Excellent (≥85%))
Storage stability (mean) [1, 12]: 95.4%
Storage stability, Evaluation [1, 14]: Average: (Average (≥50%))
Storage stability (mean) [1, 14]: 52.9%
Storage stability, Evaluation [1, 15]: Average: (Average (≥50%))
Storage stability (mean) [1, 15]: 68.4%
Storage stability, Evaluation [2, 17]: Good (Good (≥70%))
Storage stability (mean) [2, 17]: 79.8%
Storage stability, Evaluation [2, 18]: Excellent: (Excellent (≥85%))
Storage stability (mean) [2, 18]: 124.2%
Storage stability, Evaluation [2, 19]: Excellent: (Excellent (≥85%))
Storage stability (mean) [2, 19]: 122.7%
Storage stability, Evaluation [2, 20]: Average: (Average (≥50%))
Storage stability (mean) [2, 20]: 69.1%
Storage stability, Evaluation [2, 21]: Average: (Average (≥50%))
Storage stability (mean) [2, 21]: 66.6%
Storage stability, Evaluation [2, 22]: Excellent: (Excellent (≥85%))
Storage stability (mean) [2, 22]: 96.5%
Structure (SMILES): NC(=O)c1ccc[n+]([C@@H]2O[C@H](COP(=O)([O-])O)[C@@H](O)[C@H]2O)c1 [NMN, nicotinamide mononucleotide]
